In article PMC9786103, “Potent and Selective Inhibition of CYP1A2 Enzyme by Obtusifolin and Its Chemopreventive Effects” (Pharmaceutics, 2022):

Experiments:
Format in all cases: biochemical
rCYP1A1 = target: T1, rCYP1A1 (Homo sapiens, UniProt P04798); experiment: Phenacetin O-deethylation (POD) in recombinant CYP1A1
T1 construct: purchased SPMED (Busan, Republic of Korea)
T1 sequence (P04798 1-512): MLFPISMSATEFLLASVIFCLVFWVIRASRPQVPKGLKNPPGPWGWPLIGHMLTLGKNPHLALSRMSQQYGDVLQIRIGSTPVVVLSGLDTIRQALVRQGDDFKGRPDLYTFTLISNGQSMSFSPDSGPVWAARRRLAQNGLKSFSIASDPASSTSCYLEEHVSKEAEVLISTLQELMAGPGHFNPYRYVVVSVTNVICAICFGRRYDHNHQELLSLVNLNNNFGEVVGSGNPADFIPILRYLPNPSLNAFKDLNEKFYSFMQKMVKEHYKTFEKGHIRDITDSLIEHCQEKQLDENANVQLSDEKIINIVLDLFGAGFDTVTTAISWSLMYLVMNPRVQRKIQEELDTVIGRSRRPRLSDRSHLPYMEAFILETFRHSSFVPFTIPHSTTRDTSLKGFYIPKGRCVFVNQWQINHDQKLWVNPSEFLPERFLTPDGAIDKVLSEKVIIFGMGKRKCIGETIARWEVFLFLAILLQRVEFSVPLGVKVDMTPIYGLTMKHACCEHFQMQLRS

CYP2C8 = target: T2, CYP2C8 (Homo sapiens, UniProt P10632); experiment: Amodiaquine N-deethylation in human liver microsomes; conditions: HLMs
T2 construct: Mixtures of pooled HLM, P450 substrates, and obtusifolin; tissue XenoTech XTreme 200; host or cells: pooled human liver microsomes
T2 sequence (P10632 1-490): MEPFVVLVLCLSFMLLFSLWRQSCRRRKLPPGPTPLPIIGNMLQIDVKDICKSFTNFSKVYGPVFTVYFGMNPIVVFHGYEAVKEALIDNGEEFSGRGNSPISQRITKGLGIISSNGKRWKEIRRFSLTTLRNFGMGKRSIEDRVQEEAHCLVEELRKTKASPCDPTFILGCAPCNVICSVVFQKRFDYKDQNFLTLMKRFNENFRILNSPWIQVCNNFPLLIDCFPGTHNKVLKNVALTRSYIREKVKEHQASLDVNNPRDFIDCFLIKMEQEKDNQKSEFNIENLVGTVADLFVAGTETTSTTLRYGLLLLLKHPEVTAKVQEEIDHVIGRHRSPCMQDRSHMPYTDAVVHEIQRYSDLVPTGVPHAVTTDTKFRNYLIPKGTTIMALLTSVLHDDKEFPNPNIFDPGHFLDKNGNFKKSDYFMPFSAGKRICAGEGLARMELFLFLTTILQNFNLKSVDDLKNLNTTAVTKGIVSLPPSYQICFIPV
Method: (§1) The following P450 isoform-specific substrates were used: coumarin (CYP2A6); bupropion (CYP2B6); amodiaquine (CYP2C8); tolbutamide (CYP2C9); omeprazole (CYP2C19); dextromethorphan (CYP2D6); chlorzoxazone (CYP2E1); and midazolam (CYP3A). […] NGS was introduced to start the reaction, which was followed by an additional incubation (15 min). Following reaction termination, aliquots of the supernatants were analyzed with LC-MS/MS.
(§2) Reverse phase column (Kinetex XB-C18, 100 × 2.10 mm; Phenomenex, Torrance, CA, USA) and triple-quadrupole mass spectrometer (LCMS 8060, Shimadzu, Kyoto, Japan) with an ultra high-performance LC system (Nexera X2, Shimadzu) analyze all the metabolites. […] For each metabolite, quantitation was carried out in selected reaction monitoring (SRM) mode using the following precursor-to-product ion transition: m/z 152 > 110 for acetaminophen (CYP1A2), m/z 214 > 186 for resorufin (CYP1A1 and CYP1A2), m/z 163 > 107 for 7-hydroxycoumarin (CYP2A6), m/z 256 > 238 for 6-hydroxybupropion (CYP2B6), m/z 328 > 283 for N-desethylamodiaquine (CYP2C8), m/z 287 > 89 for 5-hydroxytolbutamide (CYP2C9), m/z 362 > 214 for 4-hydroxyomeprazole (CYP2C9), m/z 258 > 157 for dextrorphan (CYP2D6), m/z 184 > 120 for 6-hydroxychlorzoxazone (CYP2E1), m/z 342 > 203 for 1′-hydroxymidazolam (CYP3A), and m/z 295 > 100 for trimipramine (IS) [23, 24].

CYP2C19 = target: T3, CYP2C19 (Homo sapiens, UniProt P33261); experiment: Omeprazole 4-hydroxylation in human liver microsomes; conditions: HLMs
T3 construct: Mixtures of pooled HLM, P450 substrates, and obtusifolin; tissue XenoTech XTreme 200; host or cells: pooled human liver microsomes
Method: as §1, §2

CYP2B6 = target: T4, CYP2B6 (Homo sapiens, UniProt P20813); experiment: Bupropion 6-hydroxylation in human liver microsomes; conditions: HLMs
T4 construct: Mixtures of pooled HLM, P450 substrates, and obtusifolin; tissue XenoTech XTreme 200; host or cells: pooled human liver microsomes
T4 sequence (P20813 1-491): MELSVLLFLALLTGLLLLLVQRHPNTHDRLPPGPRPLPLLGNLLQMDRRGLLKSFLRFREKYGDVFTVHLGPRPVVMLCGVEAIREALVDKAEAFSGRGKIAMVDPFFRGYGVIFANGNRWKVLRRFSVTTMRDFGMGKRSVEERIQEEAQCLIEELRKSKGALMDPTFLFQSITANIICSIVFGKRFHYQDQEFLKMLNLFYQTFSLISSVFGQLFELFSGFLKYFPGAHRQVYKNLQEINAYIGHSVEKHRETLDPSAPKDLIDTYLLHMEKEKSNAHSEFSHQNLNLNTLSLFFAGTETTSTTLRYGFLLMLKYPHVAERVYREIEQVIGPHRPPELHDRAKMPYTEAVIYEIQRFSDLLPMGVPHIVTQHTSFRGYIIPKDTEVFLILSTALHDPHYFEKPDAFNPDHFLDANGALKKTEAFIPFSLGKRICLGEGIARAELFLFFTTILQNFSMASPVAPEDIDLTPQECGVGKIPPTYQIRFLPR
Method: as §1, §2

T3 sequence (P33261 whole entry): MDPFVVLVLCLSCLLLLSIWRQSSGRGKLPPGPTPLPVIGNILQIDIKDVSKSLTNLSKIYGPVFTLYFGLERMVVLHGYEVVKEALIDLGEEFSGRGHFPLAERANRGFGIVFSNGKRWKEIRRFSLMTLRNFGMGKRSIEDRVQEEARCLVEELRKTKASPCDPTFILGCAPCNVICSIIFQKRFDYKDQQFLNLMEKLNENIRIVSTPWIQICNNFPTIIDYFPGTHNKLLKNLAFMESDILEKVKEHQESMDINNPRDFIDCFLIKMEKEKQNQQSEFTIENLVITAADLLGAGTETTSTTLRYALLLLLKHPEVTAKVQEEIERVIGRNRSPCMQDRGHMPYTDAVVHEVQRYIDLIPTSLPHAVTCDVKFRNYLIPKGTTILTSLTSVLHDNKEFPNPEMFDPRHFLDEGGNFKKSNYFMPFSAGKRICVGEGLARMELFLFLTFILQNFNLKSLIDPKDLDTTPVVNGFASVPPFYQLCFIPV

Selectivity for rCYP1A1 over rCYP1A2 (rCYP1A1; CYP1A-mediated POD activity): over six-fold
IC50 (rCYP1A1; substrate phenacetin (POD)): 0.06 ± 0.02 µM
IC50 (CYP2C8): 31.4 µM
IC50 (CYP2C19): > 50 µM
IC50 (CYP2B6): > 50 µM
Structure (SMILES): COc1c(O)c(C)cc2c1C(=O)c1c(O)cccc1C2=O [Obtusifolin, obtusifolin]
